Patent US20260027116A1, “Methods of Treating Chronic Graft-Versus-Host Disease Following Allogeneic Hematopoietic Stem Cell Transplantation” (Kadmon Corporation, LLC, priority 2022, published 2026)

Tested on: patients with cGVHD
Conditions: Cohort 1 200 mg QD

CC(C)NC(=O)COc1cccc(-c2nc(Nc3ccc4[nH]ncc4c3)c3ccccc3n2)c1 [Belumosudil, 2-{3-[4-(1H-indazol-5-ylamino)-2-quinazolinyl]phenoxy}-N-(propan-2-yl) acetamide]
Abdominal distension: # Events: 1 | Abdominal distension: Affected/At Risk (%): 1/17 (5.88%) | Abdominal pain upper: # Events: 1 | Abdominal pain upper: Affected/At Risk (%): 1/17 (5.88%) | Abdominal pain: # Events: 2 | Abdominal pain: Affected/At Risk (%): 2/17 (11.76%) | Actinic keratosis: # Events: 0 | Actinic keratosis: Affected/At Risk (%): 0/17 (0%) | Acute kidney injury: # Events: 4 | Acute kidney injury: Affected/At Risk (%): 1/17 (5.88%) | Acute respiratory distress syndrome: # Events: 1 | Acute respiratory distress syndrome: Affected/At Risk (%): 1/17 (5.88%) | Adrenal insufficiency: # Events: 2 | Adrenal insufficiency: Affected/At Risk (%): 1/17 (5.88%) | Alanine aminotransferase increased: # Events: 12 | Alanine aminotransferase increased: Affected/At Risk (%): 6/17 (35.29%) | All grade ALT/AST increased, No. (%): 11 (65) | All grade Cough, No. (%): 1 (6) | All grade Diarrhea, No. (%): 6 (35) | All grade Dyspnea, No. (%): 3 (18) | All grade Fatigue, No. (%): 6 (35) | All grade Headache, No. (%): 4 (24) | All grade Hypertension, No. (%): 5 (29) | All grade Nausea, No. (%): 6 (35) | All grade Peripheral edema, No. (%): 3 (18) | All grade URI, No. (%): 9 (53) | All-Cause Mortality, %: (11.76%) | All-Cause Mortality, Affected/At Risk: 2/17 | Anaemia: # Events: 14 | Anaemia: Affected/At Risk (%): 5/17 (29.41%) | Anal incontinence: # Events: 2 | Anal incontinence: Affected/At Risk (%): 1/17 (5.88%) | Anxiety: # Events: 1 | Anxiety: Affected/At Risk (%): 1/17 (5.88%) | Any AE, No. (%): 17 (100) | Arthralgia: # Events: 1 | Arthralgia: Affected/At Risk (%): 1/17 (5.88%) | Aspartate aminotransferase increased: # Events: 8 | Aspartate aminotransferase increased: Affected/At Risk (%): 5/17 (29.41%) | Asthenia: # Events: 0 | Asthenia: Affected/At Risk (%): 0/17 (0%) | Atelectasis: # Events: 1 | Atelectasis: Affected/At Risk (%): 1/17 (5.88%) | Back pain: # Events: 0 | Back pain: Affected/At Risk (%): 0/17 (0%) | Balance disorder: # Events: 0 | Balance disorder: Affected/At Risk (%): 0/17 (0%) | Basal cell carcinoma: # Events: 0 | Basal cell carcinoma: Affected/At Risk (%): 0/17 (0%) | Benign prostatic hyperplasia: # Events: 1 | Benign prostatic hyperplasia: Affected/At Risk (%): 1/17 (5.88%) | Blepharitis: # Events: 1 | Blepharitis: Affected/At Risk (%): 1/17 (5.88%) | Blister: # Events: 0 | Blister: Affected/At Risk (%): 0/17 (0%) | Blood alkaline phosphatase increased: # Events: 6 | Blood alkaline phosphatase increased: Affected/At Risk (%): 4/17 (23.53%) | Blood chloride decreased: # Events: 0 | Blood chloride decreased: Affected/At Risk (%): 0/17 (0%) | Blood cholesterol increased: # Events: 2 | Blood cholesterol increased: Affected/At Risk (%): 1/17 (5.88%) | Blood creatine increased: # Events: 0 | Blood creatine increased: Affected/At Risk (%): 0/17 (0%) | Blood creatine phosphokinase increased: # Events: 1 | Blood creatine phosphokinase increased: Affected/At Risk (%): 1/17 (5.88%) | Blood creatinine increased: # Events: 1 | Blood creatinine increased: Affected/At Risk (%): 1/17 (5.88%) | Blood loss anaemia: # Events: 1 | Blood loss anaemia: Affected/At Risk (%): 1/17 (5.88%) | Bronchial secretion retention: # Events: 0 | Bronchial secretion retention: Affected/At Risk (%): 0/17 (0%) | Bronchitis: # Events: 1 | Bronchitis: Affected/At Risk (%): 1/17 (5.88%) | Bronchoscopy: # Events: 1 | Bronchoscopy: Affected/At Risk (%): 1/17 (5.88%) | Catheter site haemorrhage: # Events: 1 | Catheter site haemorrhage: Affected/At Risk (%): 1/17 (5.88%) | Chills: # Events: 1 | Chills: Affected/At Risk (%): 1/17 (5.88%) | Chronic kidney disease: # Events: 1 | Chronic kidney disease: Affected/At Risk (%): 1/17 (5.88%) | Conjunctival haemorrhage: # Events: 0 | Conjunctival haemorrhage: Affected/At Risk (%): 0/17 (0%) | Conjunctivitis: # Events: 0 | Conjunctivitis: Affected/At Risk (%): 0/17 (0%) | Constipation: # Events: 1 | Constipation: Affected/At Risk (%): 1/17 (5.88%) | Contrast media allergy: # Events: 0 | Contrast media allergy: Affected/At Risk (%): 0/17 (0%) | Contusion: # Events: 2 | Contusion: Affected/At Risk (%): 2/17 (11.76%) | Corneal abrasion: # Events: 1 | Corneal abrasion: Affected/At Risk (%): 1/17 (5.88%) | Corneal infection: # Events: 0 | Corneal infection: Affected/At Risk (%): 0/17 (0%) | Cough: # Events: 1 | Cough: Affected/At Risk (%): 1/17 (5.88%) | Death, No. (%): 0 | Decreased appetite: # Events: 4 | Decreased appetite: Affected/At Risk (%): 2/17 (11.76%) | Dehydration: # Events: 2 | Dehydration: Affected/At Risk (%): 2/17 (11.76%) | Depression: # Events: 0 | Depression: Affected/At Risk (%): 0/17 (0%) | Diarrhoea: # Events: 9 | Diarrhoea: Affected/At Risk (%): 6/17 (35.29%) | Dizziness: # Events: 0 | Dizziness: Affected/At Risk (%): 0/17 (0%) | Drug eruption: # Events: 0 | Drug eruption: Affected/At Risk (%): 0/17 (0%) | Drug-related AE, No. (%): 8 (47) | Drug-related SAE, No. (%): 0 | Dry eye: # Events: 3 | Dry eye: Affected/At Risk (%): 2/17 (11.76%) | Dry skin: # Events: 1 | Dry skin: Affected/At Risk (%): 1/17 (5.88%) | Dyspepsia: # Events: 0 | Dyspepsia: Affected/At Risk (%): 0/17 (0%) | Dysphagia: # Events: 1 | Dysphagia: Affected/At Risk (%): 1/17 (5.88%) | Dyspnoea exertional: # Events: 1 | Dyspnoea exertional: Affected/At Risk (%): 1/17 (5.88%) | Dyspnoea: # Events: 2 | Dyspnoea: Affected/At Risk (%): 2/17 (11.76%) | Embolism: # Events: 1 | Embolism: Affected/At Risk (%): 1/17 (5.88%) | Enamel anomaly: # Events: 0 | Enamel anomaly: Affected/At Risk (%): 0/17 (0%) | Epidural lipomatosis: # Events: 1 | Epidural lipomatosis: Affected/At Risk (%): 1/17 (5.88%) | Epstein-Barr virus infection: # Events: 1 | Epstein-Barr virus infection: Affected/At Risk (%): 1/17 (5.88%) | Erectile dysfunction: # Events: 4 | Erectile dysfunction: Affected/At Risk (%): 2/17 (11.76%) | Eye irritation: # Events: 1 | Eye irritation: Affected/At Risk (%): 1/17 (5.88%) | Eye pain: # Events: 0 | Eye pain: Affected/At Risk (%): 0/17 (0%) | Eye pruritus: # Events: 0 | Eye pruritus: Affected/At Risk (%): 0/17 (0%) | Fall: # Events: 2 | Fall: Affected/At Risk (%): 2/17 (11.76%) | Fatigue: # Events: 7 | Fatigue: Affected/At Risk (%): 6/17 (35.29%) | Flatulence: # Events: 0 | Flatulence: Affected/At Risk (%): 0/17 (0%) | Flushing: # Events: 0 | Flushing: Affected/At Risk (%): 0/17 (0%) | Fungal infection: # Events: 1 | Fungal infection: Affected/At Risk (%): 1/17 (5.88%) | Gamma-glutamyltransferase increased: # Events: 9 | Gamma-glutamyltransferase increased: Affected/At Risk (%): 4/17 (23.53%) | Gastric ulcer: # Events: 0 | Gastric ulcer: Affected/At Risk (%): 0/17 (0%) | Gastrooesophageal reflux disease: # Events: 2 | Gastrooesophageal reflux disease: Affected/At Risk (%): 2/17 (11.76%) | Generalised oedema: # Events: 1 | Generalised oedema: Affected/At Risk (%): 1/17 (5.88%) | Genital infection fungal: # Events: 0 | Genital infection fungal: Affected/At Risk (%): 0/17 (0%) | Glaucoma: # Events: 0 | Glucose urine present: # Events: 3 | Glucose urine present: Affected/At Risk (%): 2/17 (11.76%) | Grade ≥3 AE, No. (%): 9 (53) | Grade ≥3 ALT/AST increased, No. (%): 2 (12) | Grade ≥3 Anemia, No. (%): 2 (12) | Grade ≥3 Dyspnea, No. (%): 1 (6) | Grade ≥3 Hyperglycemia, No. (%): 2 (12) | Grade ≥3 Hypoxia, No. (%): 1 (6)
